Measured values from ChEMBL document CHEMBL1201861, “Genomics of Drug Sensitity in Cancer screening data, Wellcome Trust Sanger Institute”.

Columns and labels:
Assay type in all cases: functional, cell-based
[1] = tested on: NCI-H2107; test: SANGER: Inhibition of human NCI-H2107 cell growth in a cell viability assay.
[2] = tested on: CP67-MEL; test: SANGER: Inhibition of human CP67-MEL cell growth in a cell viability assay.
[3] = tested on: KP-N-RT-BM-1; test: SANGER: Inhibition of human KP-N-RT-BM-1 cell growth in a cell viability assay.
[4] = tested on: RL95-2; test: cells; settings: Homo sapiens;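 further: RL95-2 growth inhibition determined through a cell viability readout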
Description: SANGER: Inhibition of human RL95-2 cell growth in a cell viability assay.

[5] = tested on: EW-12; test: SANGER: Inhibition of human EW-12 cell growth in a cell viability assay.
[6] = tested on: NCI-H128; test: SANGER: Inhibition of human NCI-H128 cell growth in a cell viability assay.
[7] = tested on: SKM-1; test: SANGER: Inhibition of human SKM-1 cell growth in a cell viability assay.
[8] = tested on: LU-135; test: cells; settings: Homo sapiens
Description: SANGER: Inhibition of human LU-135 cell growth in a cell viability assay.

[9] = tested on: D-423MG; test: cells; settings: Homo sapiens
Description: SANGER: Inhibition of human D-423MG cell growth in a cell viability assay.

[10] = tested on: NCI-H1666; test: cells; settings: Homo sapiens;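 further: growth inhibition of the cell line, read out with a cell viability assay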
Description: SANGER: Inhibition of human NCI-H1666 cell growth in a cell viability assay.

[11] = tested on: NCI-H1975; test: cells; settings: Homo sapiens
Description: SANGER: Inhibition of human NCI-H1975 cell growth in a cell viability assay.

[12] = tested on: CFPAC-1; test: cells; settings: Homo sapiens;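 further: cell viability readout used to gauge suppression of CFPAC-1 cell proliferation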
Description: SANGER: Inhibition of human CFPAC-1 cell growth in a cell viability assay.

[13] = tested on: RH-18; test: cells; settings: Homo sapiens, Rh18;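 further: growth inhibition of human RH-18 cells, read out with a cell viability assay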
Description: SANGER: Inhibition of human RH-18 cell growth in a cell viability assay.

[14] = tested on: H9; test: cells; settings: Homo sapiens
Description: SANGER: Inhibition of human H9 cell growth in a cell viability assay.

[15] = tested on: NCI-H2029; test: cells; settings: Homo sapiens;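 further: Read-out is a viability assay on the cultured cells, and IC50 is the concentration that suppresses cell growth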
Description: SANGER: Inhibition of human NCI-H2029 cell growth in a cell viability assay.

[16] = tested on: SW 1116; test: cells; settings: Homo sapiens;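 further: growth inhibition of SW1116 cells, read out with a cell viability assay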
Description: SANGER: Inhibition of human SW1116 cell growth in a cell viability assay.

[17] = tested on: NBsusSR; test: cells; settings: Homo sapiens;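 further: growth inhibition of the human cell line, read out with a cell viability assay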
Description: SANGER: Inhibition of human NBsusSR cell growth in a cell viability assay.

[18] = tested on: D-566MG; test: cells; settings: Homo sapiens
[19] = tested on: ECC10; test: cells; settings: Homo sapiens;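 further: growth inhibition of ECC10 cells, read out by a cell viability assay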
Description: SANGER: Inhibition of human ECC10 cell growth in a cell viability assay.

[20] = tested on: TI-73; test: cells; settings: Homo sapiens;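 further: cell viability assay measuring how much compounds suppress growth of the cultured cell line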
Description: SANGER: Inhibition of human TI-73 cell growth in a cell viability assay.

[21] = tested on: H-EMC-SS; test: cells; settings: Homo sapiens
Description: SANGER: Inhibition of human H-EMC-SS cell growth in a cell viability assay.

[22] = tested on: KNS-62; test: cells; settings: Homo sapiens;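 further: inhibition of cell growth, read out with a cell viability assay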
Description: SANGER: Inhibition of human KNS-62 cell growth in a cell viability assay.

[23] = tested on: EPLC-272H; test: cells; settings: Homo sapiens
Description: SANGER: Inhibition of human EPLC-272H cell growth in a cell viability assay.

[24] = tested on: BT-549; test: cells; settings: Homo sapiens
Description: SANGER: Inhibition of human BT-549 cell growth in a cell viability assay.

[25] = tested on: TGBC11TKB; test: cells; settings: Homo sapiens;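 further: growth inhibition of human TGBC11TKB cells, measured by a cell viability assay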
Description: SANGER: Inhibition of human TGBC11TKB cell growth in a cell viability assay.

[26] = tested on: NCI-H2291; test: cells; settings: Homo sapiens
Description: SANGER: Inhibition of human NCI-H2291 cell growth in a cell viability assay.

[27] = tested on: SW900; test: cells; settings: Homo sapiens;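 further: IC50 is the concentration that inhibits SW900 cell growth, measured by a cell viability assay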
Description: SANGER: Inhibition of human SW900 cell growth in a cell viability assay.

[28] = tested on: OC-314; test: cells; settings: Homo sapiens
Description: SANGER: Inhibition of human OC-314 cell growth in a cell viability assay.

[29] = tested on: A549; test: cells; settings: Homo sapiens;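 further: growth inhibition of A549 cells, read out with a cell viability assay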
Description: SANGER: Inhibition of human A549 cell growth in a cell viability assay.

[30] = tested on: ZR-75-30; test: cells; settings: Homo sapiens;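 further: growth inhibition of ZR-75-30 cells, measured with a cell viability readout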
Description: SANGER: Inhibition of human ZR-75-30 cell growth in a cell viability assay.

[31] = tested on: BALL-1; test: cells; settings: Homo sapiens;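 further: growth inhibition of BALL-1 cells, read out with a cell viability assay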
Description: SANGER: Inhibition of human BALL-1 cell growth in a cell viability assay.

[32] = tested on: CHP-134; test: SANGER: Inhibition of human CHP-134 cell growth in a cell viability assay.

Row | SMILES | IC50 [8] [µM] | IC50 [9] [µM] | IC50 [10] [µM] | IC50 [12] [µM] | IC50 [13] [µM] | IC50 [16] [µM] | IC50 [17] [µM] | IC50 [18] [µM] | IC50 [20] [µM] | IC50 [21] [µM] | IC50 [22] [µM] | IC50 [23] [µM] | IC50 [24] [µM] | IC50 [25] [µM] | IC50 [26] [µM] | IC50 [27] [µM] | IC50 [28] [µM] | IC50 [29] [µM] | IC50 [30] [µM] | IC50 [31] [µM] | other results
1 | CCNc1cc(N[C@H]2CC[C@@H](O)CC2)nc(Nc2ccc3c(ccn3Cc3ccccc3)c2)n1 |  |  |  |  |  |  |  |  |  |  |  |  |  |  |  |  |  |  |  |  | IC50 [1]: > 5.12 µM; IC50 [2]: > 5.12 µM; IC50 [3]: > 5.12 µM; IC50 [4]: 3.2 µM; IC50 [5]: > 5.12 µM; IC50 [6]: > 5.12 µM; IC50 [7]: > 5.12 µM
2 | Cn1cc(/C=C2\C(=O)Nc3cccnc32)c2ccccc21 | > 2 | > 2 | > 2 | > 2 | > 2 | > 2 | > 2 | > 2 | > 2 | 0.765 | > 2 | > 2 | > 2 | > 2 | > 2 | > 2 | > 2 | > 2 | > 2 | > 2 | IC50 [11]: > 2 µM; IC50 [14]: > 2 µM; IC50 [15]: > 2 µM; IC50 [19]: > 2 µM
3 | O=c1cc(N2CCOCC2)oc2c(-c3cccc4c3sc3ccccc34)cccc12 | > 2 | 1.69 | > 2 | > 2 | > 2 | > 2 | > 2 | > 2 | > 2 | > 2 | > 2 | > 2 | > 2 | > 2 | > 2 | > 2 | > 2 | > 2 | > 2 | > 2 | IC50 [15]: > 2 µM; IC50 [32]: > 2 µM
4 | COc1cc(C)c(Sc2cnc(NC(=O)c3ccc(CNC(C)C(C)(C)C)cc3)s2)cc1C(=O)N1CCN(C(C)=O)CC1 (stereo not drawn) |  |  |  |  |  |  |  |  |  |  |  |  |  |  |  |  |  |  |  |  | IC50 [1]: > 10.2 µM; IC50 [2]: > 10.2 µM; IC50 [3]: > 10.2 µM; IC50 [4]: 4.51 µM; IC50 [5]: > 10.2 µM; IC50 [6]: > 10.2 µM; IC50 [7]: > 10.2 µM
5 | NC(=O)c1ncn([C@@H]2O[C@H](COP(=O)(O)O)[C@@H](O)[C@H]2O)c1N | > 2000 | > 2000 | > 2000 | 1120 | > 2000 | > 2000 | 474 | > 2000 | 724 |  | 996 | 569 | 807 | > 2000 | > 2000 | > 2000 |  | > 2000 | > 2000 | > 2000 | IC50 [11]: 1070 µM
6 | Cc1n[nH]c2ccc(-c3cncc(OC[C@@H](N)Cc4c[nH]c5ccccc45)c3)cc12 [A-443654] |  |  |  |  |  |  |  |  |  |  |  |  |  |  |  |  |  |  |  |  | IC50 [1]: 0.958 µM; IC50 [2]: 0.313 µM; IC50 [3]: 0.911 µM; IC50 [4]: 0.0228 µM; IC50 [5]: > 1.02 µM; IC50 [6]: > 1.02 µM; IC50 [7]: > 1.02 µM
7 | COc1cc(Nc2c(C#N)cnc3cc(OCCCN4CCN(C)CC4)c(OC)cc23)c(Cl)cc1Cl [BOSUTINIB] | > 2 | > 2 | > 2 | > 2 | > 2 | > 2 | > 2 | 1.57 | 1.02 | > 2 | > 2 | > 2 | > 2 | > 2 | > 2 | > 2 | 0.87 | > 2 | > 2 | > 2 | IC50 [14]: 0.435 µM; IC50 [15]: > 2 µM; IC50 [19]: > 2 µM
8 | CC[C@@]1(O)C(=O)OCc2c1cc1n(c2=O)Cc2cc3ccccc3nc2-1 [CAMPTOTHECIN] | 0.0282 | 0.00255 | 0.0187 | 0.0148 |  |  | 0.000194 | 0.000132 | 0.0146 | 0.0956 | 0.0077 | 0.0728 | 0.0176 | 0.0122 | > 0.1 | 0.0318 | 0.00251 | 0.0141 |  |  | IC50 [14]: 0.000358 µM; IC50 [19]: 0.00385 µM
9 | Cn1c(=O)n(-c2ccc(C(C)(C)C#N)cc2)c2c3cc(-c4cnc5ccccc5c4)ccc3ncc21 [DACTOLISIB] | > 2 | 0.0521 | 0.00971 | 0.151 | 0.395 | > 2 | 0.0246 | 0.0177 | 0.0253 | 0.147 | 0.0454 | 0.0444 | 0.119 | 0.41 | 0.598 | 0.155 | 0.0387 | 0.0101 | > 2 | > 2 | IC50 [15]: 1.42 µM; IC50 [19]: 0.032 µM; IC50 [32]: 0.14 µM
10 | Cc1nc(Nc2ncc(C(=O)Nc3c(C)cccc3Cl)s2)cc(N2CCN(CCO)CC2)n1 [DASATINIB] |  |  |  |  |  |  |  |  |  |  |  |  |  |  |  |  |  |  |  |  | IC50 [1]: > 1.28 µM; IC50 [2]: 0.205 µM; IC50 [3]: > 1.28 µM; IC50 [4]: 0.104 µM; IC50 [5]: > 1.28 µM; IC50 [6]: > 1.28 µM; IC50 [7]: > 1.28 µM
11 | C[C@]12O[C@H](C[C@]1(O)CO)n1c3ccccc3c3c4c(c5c6ccccc6n2c5c31)CNC4=O [LESTAURTINIB] | > 2 | 0.571 | 1.89 | > 2 | > 2 | > 2 | 0.162 | 0.0965 | 0.235 | 0.425 | > 2 | 0.154 | 0.163 | 1.41 | 1.8 | 1.41 | 1.84 | 0.194 | > 2 | > 2 | IC50 [11]: 1.25 µM; IC50 [14]: 0.0348 µM; IC50 [15]: > 2 µM; IC50 [19]: 0.311 µM
12 | CC(=O)c1c(C)c2cnc(Nc3ccc(N4CCNCC4)cn3)nc2n(C2CCCC2)c1=O [PALBOCICLIB] | > 4 | > 4 |  | > 4 | > 4 | > 4 | 0.743 | > 4 | > 4 | > 4 | > 4 | > 4 | > 4 | > 4 | > 4 |  | > 4 | 1.29 | > 4 | > 4 | IC50 [14]: 0.495 µM; IC50 [15]: > 4 µM; IC50 [19]: 2.7 µM; IC50 [32]: 1.12 µM
13 | CCCS(=O)(=O)Nc1ccc(F)c(C(=O)c2c[nH]c3ncc(Cl)cc23)c1F [PLX-4720] | > 10 | > 10 | > 10 | > 10 | > 10 | > 10 | > 10 | > 10 | 6.01 | > 10 | > 10 | > 10 | > 10 | > 10 | > 10 | > 10 | > 10 | > 10 | > 10 | > 10 | IC50 [15]: > 10 µM; IC50 [19]: > 10 µM; IC50 [32]: > 10 µM
14 | C[C@]1(c2nc3c(C(N)=O)cccc3[nH]2)CCCN1 [VELIPARIB] | > 5 | > 5 | > 5 | > 5 | > 5 | > 5 | > 5 | > 5 | > 5 | > 5 | > 5 | > 5 | > 5 | > 5 | > 5 | > 5 | > 5 | > 5 | > 5 | > 5 | IC50 [14]: > 5 µM; IC50 [15]: > 5 µM; IC50 [19]: > 5 µM
15 | CC[C@]1(O)C[C@@H]2CN(CCc3c([nH]c4ccccc34)[C@@](C(=O)OC)(c3cc4c(cc3OC)N(C)[C@H]3[C@@](O)(C(=O)OC)[C@H](OC(C)=O)[C@]5(CC)C=CCN6CC[C@]43[C@@H]65)C2)C1 [VINBLASTINE] | 0.0356 | 0.00864 | 0.0201 | 0.0932 | > 0.1 | > 0.1 | 0.00323 | 0.00204 | 0.00321 | > 0.1 | 0.0058 | 0.0108 | 0.00798 | 0.0158 | > 0.1 | 0.0254 | 0.00222 | 0.00495 | > 0.1 | > 0.1 | IC50 [11]: 0.0242 µM; IC50 [14]: 0.00225 µM; IC50 [15]: > 0.1 µM; IC50 [19]: 0.0212 µM
